In patent US5914314A (priority 1989, dated 1999):

Tests used:
tumor = conditions: injected directly into a tumor
[1] = topical application to scalp, hair growth; format: in vivo, human; conditions: Case XXX: balding patient; topically to scalp
Procedure: This patient was diagnosed in January, 1990. A gastric resection and colonic replacement of oesophagus (for swallowing) was performed. They had also developed an intraperitoneal tumor. They were given chemotherapy and lost their hair. […] Dr. Falk saw this patient on Jun.
This balding patient applied the product "minoxidil" sold under the trademark "ROGAINE" topically to their scalp.

[2] = Case XXVIII: carcinoma of the ovary, 40 kg; 120-200 mg LASIX intravenously
[3] = following intravenous administration; cited from earlier work
[4] = system: Grafts from ACI strain rats (black) to Lewis Strain rats (white); experiment: standard rat skin graft rejection model; format: in vivo; conditions: hyaluronic acid added to cyclosporin
[5] = side effects / toxicity in human patients; format: in vivo; conditions: 10 to 1000 mg/70 kg person

In the case of `CCO` [ethyl alcohol], the “dispersion in tumor, sonographic (ultrasound) assessment” value (tumor) is reported as “not dispersed throughout the tumor”.
With `Nc1cc(N2CCCCC2)nc(N)[n+]1[O-]` [ROGAINE, minoxidil] the hair growth [1] was “minimal or little hair growth”.
In the case of `NS(=O)(=O)c1cc(C(=O)O)c(NCc2ccco2)cc1Cl` [LASIX, furosemide], the “total volume of urine over 48 hours” value [2] is given as 2,450 ml, the duration of action [3] is given as “about 2 hours” and the onset of diuresis [3] is given as ≤ 30 min.
In the case of hyaluronic acid, the “cyclosporin induced graft survival” value [4] is reported as “significantly increased cyclosporin induced graft survival” and the toxicity [5] is reported as “no toxicity”.
